Patent US12679878B2, “CRF2 receptor agonists and their use in therapy” (SANOFI, priority 2020, dated 2026)
Read-outs that look alike come from different tables or passages of the source. Starred links: 1 amine or outer side, 2 acyl side, 3 side chain; linkers in the order of their positions; H or OH if unused. Non-standard residues stand in square brackets, D forms with d. Residues, ends and D or L forms follow the SMILES beside them. Groups on a side chain read outwards from the residue. *: point of attachment. C18 diacid = O=C(O)CCCCCCCCCCCCCCCCC(=O)*; γGlu = O=C(O)[C@H](CCC(=O)[*:2])N[*:1]; AEEA = NCCOCCOCC(=O)O; Aib = CC(C)(N)C(=O)O

How the values were obtained:
CRF1R receptor = target: T1, CRF1R receptor (Homo sapiens, UniProt P34998); assay: cAMP activity at anti-target CRF1R, CHO-K1 cell line clone 2 (Example 19.10); type: cell-based; conditions: CRF1R CHO-K1 clone 2; for EC50: 0% HSA, read-out: EC50 [nM] 0% HSA; for Emax: 100% = Sauvagine at 100 nM
T1 construct: host or cells: CHO-K1 clone 2
T1 sequence (P34998 24-415): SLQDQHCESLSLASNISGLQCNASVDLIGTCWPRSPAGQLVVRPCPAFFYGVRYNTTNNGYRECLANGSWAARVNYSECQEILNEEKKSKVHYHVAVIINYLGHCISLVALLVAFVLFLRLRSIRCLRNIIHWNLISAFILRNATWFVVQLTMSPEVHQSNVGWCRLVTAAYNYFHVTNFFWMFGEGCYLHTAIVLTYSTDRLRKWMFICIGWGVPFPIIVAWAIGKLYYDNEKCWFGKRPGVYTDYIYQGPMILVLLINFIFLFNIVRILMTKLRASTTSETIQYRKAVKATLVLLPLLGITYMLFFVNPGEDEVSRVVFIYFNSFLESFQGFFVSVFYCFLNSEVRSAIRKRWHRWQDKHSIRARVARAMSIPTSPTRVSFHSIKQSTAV
How it was run: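 A CRF1R-overexpressing CHO-K1 line (clone 2) was grown in F12/10% FBS/G418 and frozen in aliquots before use. The cAMP assay followed the preceding procedure, with 100% activation defined by Sauvagine at 100 nM.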

human CRF2α receptor = target: T2, human CRF2α receptor (Homo sapiens, UniProt Q13324); assay: cAMP agonism at human CRF2 α receptor in TeloHEAC cells (Example 7); type: cell-based; conditions: cAMP HTRF, TeloHEAC cells stably expressing human CRF2 α
T2 construct: expressed in transfected cells; host or cells: TeloHEAC
T2 sequence (Q13324 1-411): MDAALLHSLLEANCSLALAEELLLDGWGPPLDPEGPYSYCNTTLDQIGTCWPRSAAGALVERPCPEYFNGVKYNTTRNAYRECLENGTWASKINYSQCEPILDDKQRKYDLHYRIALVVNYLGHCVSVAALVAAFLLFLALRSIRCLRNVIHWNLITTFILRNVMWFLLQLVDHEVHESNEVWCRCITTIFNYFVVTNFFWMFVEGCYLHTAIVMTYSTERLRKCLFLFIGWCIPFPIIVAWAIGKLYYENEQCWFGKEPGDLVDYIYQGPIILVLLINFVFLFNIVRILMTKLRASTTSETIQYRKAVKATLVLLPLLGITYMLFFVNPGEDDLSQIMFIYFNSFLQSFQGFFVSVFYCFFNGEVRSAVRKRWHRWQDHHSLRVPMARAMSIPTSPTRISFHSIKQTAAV
How it was run: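 Steps: thaw and wash cells; suspend in 1×HBSS, 20 mM HEPES, 0 or 0.1% HSA, 2 mM IBMX; add compound, 30 min RT; lyse with HTRF reagents, 1 h; read 665/620 nm. EC50 calculated, E% versus 1000 nM UCN2.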

[1] = 0% HSA, read-out: EC50 [nM], 0% HSA
[2] = 0.1% HSA, read-out: EC50 [nM], 0.1% HSA

Row | EC50 (CRF1R receptor) [nM] | Emax (CRF1R receptor) [%] | EC50 (human CRF2α receptor; [1]) [nM] | EC50 (human CRF2α receptor; [2]) [nM] | SMILES
1 | > 100 | -6 | 0.11 |  | CC[C@H](C)[C@H](N)C(=O)N[C@H](C(=O)N[C@@H](CC(C)C)C(=O)N[C@@H](CO)C(=O)N[C@@H](CC(C)C)C(=O)N[C@@H](CC(=O)O)C(=O)N[C@H](C(=O)N1CCC[C@H]1C(=O)N[C@H](C(=O)N[C@@H](CCCCN)C(=O)N[C@@H](CC(C)C)C(=O)N[C@@H](CCCCNC(=O)COCCOCCNC(=O)COCCOCCNC(=O)CC[C@H](NC(=O)CCCCCCCCCCCCCCCCC(=O)O)C(=O)O)C(=O)N[C@@H](CCC(N)=O)C(=O)N[C@H](C(=O)N[C@@H](CC(C)C)C(=O)N[C@@H](CC(C)C)C(=O)N[C@@H](CCCCN)C(=O)N[C@@H](CCC(N)=O)C(=O)N[C@@H](CCC(=O)O)C(=O)N[C@@H](CCCNC(=N)N)C(=O)N[C@@H](CCC(N)=O)C(=O)N[C@@H](CCCCN)C(=O)NC(C)(C)C(=O)N[C@@H](CCC(N)=O)C(=O)N[C@@H](CCCNC(=N)N)C(=O)N[C@@H](CCC(N)=O)C(=O)N[C@@H](CCC(N)=O)C(=O)N[C@@H](C)C(=O)N[C@@H](CCC(=O)O)C(=O)N[C@@H](CCCCN)C(=O)N[C@@H](CC(N)=O)C(=O)N[C@@H](CCCCN)C(=O)N[C@@H](CCC(N)=O)C(=O)N[C@H](C(=O)N[C@@H](CC(C)C)C(=O)N[C@@H](C)C(=O)N[C@@H](CCC(N)=O)C(=O)N[C@H](C(N)=O)C(C)C)[C@@H](C)CC)[C@@H](C)CC)[C@@H](C)CC)C(C)C)C(C)C [compound 117] (H-IVLSLDVPIKLK([AEEA-AEEA-γGlu-C18 diacid])QILLKQERQK[Aib]QRQQAEKNKQILAQV-NH2)
2 | > 100 | 1.5 | 0.04 | 2.13 | CC[C@H](C)[C@H](N)C(=O)N[C@H](C(=O)N[C@@H](CC(C)C)C(=O)N[C@@H](CO)C(=O)N[C@@H](CC(C)C)C(=O)N[C@@H](CC(=O)O)C(=O)N[C@@H](C(=O)N1CCC[C@H]1C(=O)N[C@H](C(=O)N[C@@H](CCCCN)C(=O)N[C@@H](CC(C)C)C(=O)N[C@@H](CCCCNC(=O)COCCOCCNC(=O)COCCOCCNC(=O)CC[C@H](NC(=O)CCCCCCCCCCCCCCCCC(=O)O)C(=O)O)C(=O)N[C@@H](CCC(N)=O)C(=O)N[C@H](C(=O)N[C@@H](CC(C)C)C(=O)N[C@@H](CC(C)C)C(=O)N[C@@H](CCCCN)C(=O)N[C@@H](CCC(N)=O)C(=O)N[C@@H](CCC(=O)O)C(=O)N[C@@H](CCCNC(=N)N)C(=O)N[C@@H](CCC(N)=O)C(=O)N[C@@H](CCCCN)C(=O)NC(C)(C)C(=O)N[C@@H](CCC(N)=O)C(=O)N[C@@H](CCCNC(=N)N)C(=O)N[C@@H](CCC(N)=O)C(=O)N[C@@H](CCCCN)C(=O)N[C@@H](C)C(=O)N[C@@H](CCC(=O)O)C(=O)N[C@@H](CCCCN)C(=O)N[C@@H](CC(N)=O)C(=O)N[C@@H](CCCCN)C(=O)N[C@@H](CCC(N)=O)C(=O)N[C@H](C(=O)N[C@@H](CC(C)C)C(=O)N[C@@H](C)C(=O)N[C@@H](CCC(N)=O)C(=O)N[C@H](C(N)=O)C(C)C)[C@@H](C)CC)[C@@H](C)CC)[C@@H](C)CC)C(C)C)C(C)C [compound 118] (H-IVLSLD[dV]PIKLK([AEEA-AEEA-γGlu-C18 diacid])QILLKQERQK[Aib]QRQKAEKNKQILAQV-NH2; N-terminus assumed)
3 | > 100 | 0.4 | 0.13 | 4.97 | CC[C@H](C)[C@H](N)C(=O)N[C@H](C(=O)N[C@@H](CC(C)C)C(=O)N[C@@H](CO)C(=O)N[C@@H](CC(C)C)C(=O)N[C@@H](CC(=O)O)C(=O)N[C@H](C(=O)N1CCC[C@H]1C(=O)N[C@H](C(=O)N[C@@H](CCCCN)C(=O)N[C@@H](CC(C)C)C(=O)N[C@@H](CCCCNC(=O)COCCOCCNC(=O)COCCOCCNC(=O)CC[C@H](NC(=O)CCCCCCCCCCCCCCCCC(=O)O)C(=O)O)C(=O)N[C@@H](CCC(N)=O)C(=O)N[C@H](C(=O)N[C@@H](CC(C)C)C(=O)N[C@@H](CC(C)C)C(=O)N[C@@H](CCCCN)C(=O)N[C@@H](CCC(N)=O)C(=O)N[C@@H](CCC(=O)O)C(=O)N[C@@H](CCCNC(=N)N)C(=O)N[C@@H](CCC(N)=O)C(=O)N[C@@H](CCCCN)C(=O)N[C@@H](CCCCN)C(=O)NC(C)(C)C(=O)N[C@@H](CCCNC(=N)N)C(=O)N[C@@H](CCC(N)=O)C(=O)N[C@@H](CCCCN)C(=O)N[C@@H](C)C(=O)N[C@@H](CCC(=O)O)C(=O)N[C@@H](CCCCN)C(=O)N[C@@H](CC(N)=O)C(=O)N[C@@H](CCCCN)C(=O)N[C@@H](CCC(N)=O)C(=O)N[C@H](C(=O)N[C@@H](CC(C)C)C(=O)N[C@@H](C)C(=O)N[C@@H](CCC(N)=O)C(=O)N[C@H](C(N)=O)C(C)C)[C@@H](C)CC)[C@@H](C)CC)[C@@H](C)CC)C(C)C)C(C)C [compound 119] (H-IVLSLDVPIKLK([AEEA-AEEA-γGlu-C18 diacid])QILLKQERQKK[Aib]RQKAEKNKQILAQV-NH2)
4 | > 100 | -1.1 | 0.73 | 41.3 | CC[C@H](C)[C@H](N)C(=O)N[C@H](C(=O)N[C@@H](CC(C)C)C(=O)N[C@@H](CO)C(=O)N[C@@H](CC(C)C)C(=O)N[C@@H](CC(=O)O)C(=O)N[C@H](C(=O)N1CCC[C@H]1C(=O)N[C@H](C(=O)N[C@@H](CCCCN)C(=O)N[C@@H](CC(C)C)C(=O)N[C@@H](CCCCNC(=O)COCCOCCNC(=O)COCCOCCNC(=O)CC[C@H](NC(=O)CCCCCCCCCCCCCCCCC(=O)O)C(=O)O)C(=O)N[C@@H](CCC(N)=O)C(=O)N[C@H](C(=O)N[C@@H](CC(C)C)C(=O)N[C@@H](CC(C)C)C(=O)N[C@@H](CCCCN)C(=O)N[C@@H](CCC(N)=O)C(=O)N[C@@H](CCC(=O)O)C(=O)N[C@@H](CCCNC(=N)N)C(=O)N[C@@H](CCC(N)=O)C(=O)N[C@@H](CCCCN)C(=O)N[C@@H](CCCCN)C(=O)N[C@@H](CCC(N)=O)C(=O)N[C@@H](CCCNC(=N)N)C(=O)N[C@@H](CCC(=O)O)C(=O)N[C@@H](CCCCN)C(=O)N[C@@H](C)C(=O)N[C@@H](CCC(=O)O)C(=O)N[C@@H](CCCCN)C(=O)N[C@@H](CC(N)=O)C(=O)N[C@@H](CCCCN)C(=O)N[C@@H](CCC(N)=O)C(=O)N[C@H](C(=O)N[C@@H](CC(C)C)C(=O)N[C@@H](C)C(=O)N[C@@H](CCC(N)=O)C(=O)N[C@H](C(N)=O)C(C)C)[C@@H](C)CC)[C@@H](C)CC)[C@@H](C)CC)C(C)C)C(C)C [compound 121] (H-IVLSLDVPIKLK([AEEA-AEEA-γGlu-C18 diacid])QILLKQERQKKQREKAEKNKQILAQV-NH2)
